Values quoted from earlier work as cited in patent US20110311589A1 (priority 2008, published 2011).

Tested on: helminthiasis
Conditions: in vivo

c1ccc([C@H]2CN3CCSC3=N2)cc1 [Levamisole]
Dosages too low, ineffective in treating helminthiasis: less than 6 mg per kg of body weight
